From patent publication US6479517B1, “Phosphorous-containing benzothiophenes” (Eli Lilly and Company, priority 1995, dated 2002)

Tests used:
ovariectomized rats [1] = assay: Uterine weight in ovariectomized rat post-menopausal model (4-day dosing); type: in vivo; conditions: for Uterine Weight (% increase vs. OVX): OVX Sprague Dawley rats, oral, daily for 4 days
Description: (§1) In the examples illustrating the methods, a post-menopausal model was used in which effects of different treatments upon circulating lipids were determined.
(§2) Seventy-five day old female Sprague Dawley rats (weight range of 200 to 225g) were obtained from Charles River Laboratories (Portage, Mich.). The animals were either bilaterally ovariectomized (OVX) or exposed to a Sham surgical procedure at Charles River Laboratories, and then shipped after one week. Upon arrival, they were housed in metal hanging cages in groups of 3 or 4 per cage and had ad libitum access to food (calcium content approximately 0.5%) and water for one week. Room temperature was maintained at 22.20°±1.7° C. with a minimum relative humidity of 40%. The photoperiod in the room was 12 hours light and 12 hours dark.
(§3) Dosing Regimen Tissue Collection. After a one week acclimation period (therefore, two weeks post-OVX) daily dosing with test compound was initiated. 17α-ethynyl estradiol or the test compound were given orally, unless otherwise stated, as a suspension in 1% carboxymethylcellulose or dissolved in 20% cyclodextrin. Animals were dosed daily for 4 days. Following the dosing regimen, animals were weighed and anesthetized with a ketamine: xylazine (2:1, V:V) mixture and a blood sample was collected by cardiac puncture. The animals were then sacrificed by asphyxiation with CO2, the uterus was removed through a midline incision, and a wet uterine weight was determined.

[2] = tested on: MCF-7 breast adenocarcinoma cells; assay: MCF-7 Proliferation Assay; type: cell-based; conditions: Homo sapiens, MCF7; MCF-7 cells, 48 hours with drug, 4 hours thymidine pulse; read-out: IC50 (MCF-7 proliferation, tritiated thymidine)
Description: MCF-7 breast adenocarcinoma cells (ATCC HTB 22) were maintained in MEM (minimal essential medium, phenol red-free, Sigma, St. Louis, Mo.) supplimented with 10% fetal bovine serum (FBS) (V/V), L-glutamine (2 mM), sodium pyruvate (1 mM), HEPES {(N-[2-hydroxyethyl]piperazine-N′-[2-ethanesulfonic acid]10 mM}, non-essential amino acids and bovine insulin (1 ug/mL) (maintenance medium). Ten days prior to assay, MCF-7 cells were switched to maintenance medium supplemented with 10% dextran coated charcoal stripped fetal bovine serum (DCC-FBS) assay medium) in place of 10% FBS to deplete internal stores of steroids. MCF-7 cells were removed from maintenance flasks using cell dissociation medium (Ca++/Mg++ free HBSS (phenol red-free) supplemented with 10 mM HEPES and 2 mM EDTA). Cells were washed twice with assay medium and adjusted to 80,000 cells/ML. Approximately 100 μL (8,000 cells) were added to flat-bottom microculture wells (Costar 3596) and incubated at 37° C. in a 5% CO2 humidified incubator for 48 hours to allow for cell adherence and equilibration after transfer. Serial dilutions of drugs or DMSO as a diluent control were prepared in assay medium and 50 μL transferred to triplicate microcultures followed by 50 μL assay medium for a final volume of 200 μL. After an additional 48 hours at 37° C. in a 5% CO2 humidified incubator, microcultures were pulsed with tritiated thymidine (1 uCi/well) for 4 hours. Cultures were terminated by freezing at −70° C. for 24 hours followed by thawing and harvesting of microcultures using a Skatron Semiautomatic Cell Harvester. Samples were counted by liquid scintillation using a Wallac BetaPlace β counter. Results in Table 2 below show the ED50 for certain compounds of the present invention.

[3] = tested on: Uterine Eosinophil Peroxidase (EPO); assay: Uterine Eosinophil Peroxidase (EPO) Assay; type: in vivo, rat
Text: as §2, §3
Uterine Eosinophil Peroxidase (EPO) Assay. Uteri were kept at 4° C. until time of enzymatic analysis. The uteri were then homogenized in 50 volumes of 50 mM Tris buffer (pH—8.0) containing 0.005% Triton X-100. Upon addition of 0.01% hydrogen peroxide and 10 mM O-phenylenediamine (final concentrations) in Tris buffer, increase in absorbance was monitored for one minute at 450 nm. The presence of eosonophils in the uterus is an indication of estrogenic activity of a compound. The maximal velocity of a 15 second interval was determined over the initial, linear portion of the reaction curve.

ovariectomized rats [4] = assay: Serum cholesterol in ovariectomized rat post-menopausal model; type: in vivo; conditions: OVX Sprague Dawley rats, oral, daily for 4 days
Description: as §1, §2, §3
Cholesterol Analysis. Blood samples were allowed to clot at room temperature for 2 hours, and serum was obtained following centrifugation for 10 minutes at 3000 rpm. Serum cholesterol was determined using a Boehringer Mannheim Diagnostics high performance cholesterol assay. Briefly the cholesterol was oxidized to cholest-4-en-3-one and hydrogen peroxide. The hydrogen peroxide was then reacted with phenol and 4-aminophenazone in the presence of peroxidase to produce a p-quinone imine dye, which was read spectrophotemetrically at 500 nm. Cholesterol concentration was then calculated against a standard curve. The entire assay was automated using a Biomek Automated Workstation.

[5] = tested on: Uterine Eosinophil Peroxidase (EPO); assay: Uterine Eosinophil Peroxidase (EPO) Assay; type: in vivo, rat; conditions: stromal layer of ovariectomized rats
[6] = OVX Sprague Dawley rats, oral, daily for 4 days, dose 0.01 mg/kg
[7] = OVX Sprague Dawley rats, oral, daily for 4 days, dose 0.1 mg/kg
[8] = OVX Sprague Dawley rats, oral, daily for 4 days, dose 1.0 mg/kg

Uterine EPO (V. max) ([3]; rat, in vivo, po, 0.01 mg/kg)	Uterine EPO (V. max) ([3]; rat, in vivo, po, 0.1 mg/kg)	Uterine EPO (V. max) ([3]; rat, in vivo, po, 1 mg/kg)	Structure (SMILES)	Uterine Weight (% increase vs. OVX) (ovariectomized rats [1]; dose 0.01 mg/kg) [%]	Uterine Weight (% increase vs. OVX) (ovariectomized rats [1]; dose 0.1 mg/kg) [%]	Uterine Weight (% increase vs. OVX) (ovariectomized rats [1]; dose 1.0 mg/kg) [%]	IC50 [2] [nM]	Uterine EPO (V. max) [3, 6]	Uterine EPO (V. max) [3, 7]	Uterine EPO (V. max) [3, 8]	Serum Cholesterol (% decrease vs. OVX) (ovariectomized rats [4]; dose 0.01 mg/kg) [%]	Serum Cholesterol (% decrease vs. OVX) (ovariectomized rats [4]; dose 0.1 mg/kg) [%]	Serum Cholesterol (% decrease vs. OVX) (ovariectomized rats [4]; dose 1.0 mg/kg) [%]	Effect on uterine weight (in words) (ovariectomized rats [1]; compared to ovariectomized test animals, EE2 orally at 0.1 mg/kg/day)	Eosinophil infiltration into the uterus (in words) [5]
–	–	–	Cl.O=C(c1ccc(OCCN2CCCCC2)cc1)c1c(-c2ccc(OP(=O)(c3ccccc3)c3ccccc3)cc2)sc2cc(OP(=O)(c3ccccc3)c3ccccc3)ccc12 [Example 3]	22.5	47.1	24.7	1	3.7	7	6.7	−25	37.6	57.5	–	–
–	–	–	C#C[C@]1(O)CC[C@H]2[C@@H]3CCc4cc(O)ccc4[C@H]3CC[C@@]21C [EE2, 17α-ethynyl estradiol, reference compound]	–	171.5	–	–	–	109.3	–	–	85.9	–	substantially greater than the uterine weight of ovariectomized test animals	substantial, expected increase in eosinophil infiltration
2.2	4.3	3.9	Cl.O=C(c1ccc(OCCN2CCCCC2)cc1)c1c(-c2ccc(O)cc2)sc2cc(O)ccc12 [Raloxifene, 6-hydroxy-2-(4-hydroxyphenyl)-3-[4-(2-piperidinoethoxy)benzoyl]benzo[b]thiophene, hydrochloride, reference compound]	–	–	–	–	–	–	–	65	75.6	71.1	–	–
–	–	–	CCOP(=O)(OCC)Oc1ccc(-c2sc3cc(OP(=O)(OCC)OCC)ccc3c2C(=O)c2ccc(OCCN3CCCCC3)cc2)cc1.Cl [Example 1]	51.5	25.2	37.0	1	0.68	6.5	5.8	24.3	41.1	17.4	–	–
–	–	–	Cl.O=C(c1ccc(OCCN2CCCCC2)cc1)c1c(-c2ccc(OP(=O)(Oc3ccccc3)Oc3ccccc3)cc2)sc2cc(OP(=O)(Oc3ccccc3)Oc3ccccc3)ccc12 [Example 2]	17.4	12.4	31.4	10	4	9.8	5.6	−48.2	15.6	55.2	–	–
